Test results from patent US7919488B2, “Therapeutic compounds” (Pfizer Inc., priority 2006, dated 2011).
Structures can show the parent of a compound that is named as a salt.

Key:
Type in all cases: biochemical
CYP3A4 [1] = target: T1, CYP3A4 (Homo sapiens, UniProt P08684); test: IC50 against CYP3A4 by inhibition of testosterone metabolism in human liver microsomes; conditions: 0.1 mg/mL human liver microsomes, 25 μM testosterone, 1 mM NADPH, 6-β-OH-testosterone production, eight minutes; read-out: IC50, μM (HLM, testosterone)
T1 construct: 0.1 mg/mL human liver microsomes; from tissue; host or cells: human liver microsomes
T1 sequence (P08684 whole entry): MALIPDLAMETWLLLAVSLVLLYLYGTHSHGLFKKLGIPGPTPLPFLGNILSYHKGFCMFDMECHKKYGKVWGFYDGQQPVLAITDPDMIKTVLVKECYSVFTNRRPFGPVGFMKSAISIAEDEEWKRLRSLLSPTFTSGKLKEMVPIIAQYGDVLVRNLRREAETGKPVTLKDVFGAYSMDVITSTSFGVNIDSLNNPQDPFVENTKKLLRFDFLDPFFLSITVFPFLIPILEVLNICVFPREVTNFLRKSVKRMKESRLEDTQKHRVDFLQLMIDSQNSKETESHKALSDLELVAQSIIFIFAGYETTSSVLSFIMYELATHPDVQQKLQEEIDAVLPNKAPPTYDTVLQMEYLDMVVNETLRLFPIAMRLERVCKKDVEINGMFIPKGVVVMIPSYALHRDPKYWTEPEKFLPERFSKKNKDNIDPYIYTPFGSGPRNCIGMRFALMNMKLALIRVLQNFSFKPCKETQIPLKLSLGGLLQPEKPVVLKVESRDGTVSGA
Outline: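 Testosterone used as substrate, incubated for eight minutes. 6-β-OH-testosterone formation quantified by LC-MS/MS (MRM) as peak area ratio to internal standard against a metabolite standard curve. IC50 derived from inhibition of this metabolism.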

CYP3A4 [2] = target: T1, CYP3A4; test: IC50 against CYP3A4 by inhibition of midazolam metabolism in human liver microsomes; conditions: 0.1 mg/mL human liver microsomes, 2 μM midazolam, 1 mM NADPH, 1-hydroxymidazolam production, eight minutes; read-out: IC50, μM (HLM, midazolam)
Outline: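 Human liver microsomes (0.1 mg/mL) incubated 8 min with 2 μM midazolam and 1 mM NADPH in 100 mM potassium phosphate, pH 7.4. 1-Hydroxymidazolam quantified by LC-MS/MS (MRM) as peak area ratio to internal standard against a metabolite standard curve.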

[3] = target: T2, recombinant CYP3A4-b5 enzyme (Baculosomes®) (Homo sapiens, UniProt P08684); test: Kiapp against recombinant CYP3A4 enzyme (Baculosomes), BFC substrate; conditions: recombinant CYP3A4-b5 (Invitrogen), 5 uM BFC, 200 uM NADPH, pre-incubation at least 30 minutes, pH 7.0, room temperature
T2 construct: purchased Invitrogen (Carlsbad, Calif.)
T2 sequence (P08684 whole entry): as above
Outline: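 Recombinant CYP3A4-b5 Baculosomes were run in 100 mM sodium phosphate pH 7.0 with 5 mM TCEP and 2% DMF at room temperature, with ~30 min pre-incubation. The reaction was started with NADPH (200 uM) and BFC (5 uM), both final. Kiapp came from initial fluorescence velocities over the first 5 min across inhibitor concentrations.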

[4] = target: T3, recombinant CYP3A4+b5 enzyme (Supersomes®) (Homo sapiens, UniProt P08684); test: Kiapp against recombinant CYP3A4 enzyme (Supersomes), BFC substrate; conditions: recombinant CYP3A4+b5 (BD Biosciences), 5 uM BFC, 200 uM NADPH, pre-incubation at least 30 minutes, pH 7.0, room temperature
T3 construct: purchased BD Biosciences (Woburn, Mass.)
T3 sequence (P08684 2-503 limits assumed): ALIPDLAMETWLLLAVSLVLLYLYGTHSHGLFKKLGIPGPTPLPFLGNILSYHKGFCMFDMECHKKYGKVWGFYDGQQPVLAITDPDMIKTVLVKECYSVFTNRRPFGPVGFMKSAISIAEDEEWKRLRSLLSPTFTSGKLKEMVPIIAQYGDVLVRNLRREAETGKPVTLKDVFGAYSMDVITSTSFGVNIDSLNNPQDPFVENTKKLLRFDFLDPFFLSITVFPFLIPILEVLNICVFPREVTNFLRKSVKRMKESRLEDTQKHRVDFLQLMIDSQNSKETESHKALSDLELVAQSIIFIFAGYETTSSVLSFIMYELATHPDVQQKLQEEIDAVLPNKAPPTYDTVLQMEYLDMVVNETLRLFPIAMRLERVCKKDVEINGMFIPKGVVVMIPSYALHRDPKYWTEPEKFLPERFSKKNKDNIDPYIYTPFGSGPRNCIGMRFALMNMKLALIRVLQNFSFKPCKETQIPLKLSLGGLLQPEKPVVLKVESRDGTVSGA
Method: 1. Determination of Compound Kiapp
A determination of the Kiapp of the compounds of the invention against recombinant CYP3A4 enzyme was performed as follows. The assay was performed in a 100 mM sodium phosphate buffer pH 7.0, 5 mM TCEP and containing 2% dimethylformamide (final concentration) upon addition of substrate and inhibitor. A typical reaction for the determination of Kiapp values was carried at room temperature in a solid black Costar u-bottom 96-well polypropylene plate. In each well, recombinant CYP3A4 enzyme (5.5 nM or 8 nM, final concentration depending on the commercial source of the enzyme) was pre-incubated in the presence of the inhibitor for at least 30 minutes in the assay buffer. When pre-incubation was completed (˜30 min), the reaction was initiated by adding NADPH (200 uM, final concentration), and 7-benzyloxy-4-(trifluoromethyl)-coumarin (BFC) (5 uM, final concentration). The oxidation of the coumarin substrate was recorded by a 96-well plate reader POLARstar (BMG LABTECH, Offenburg, Germany).
The initial reaction velocities were measured during the first 5 min of the reaction when the release of the fluorescent product is linear with time, in the absence and in the presence of various concentrations of inhibitors. For non-partial & partial inhibitors, the Kiapp values were determined by using the equation for tight-binding inhibitor developed by Morrison, J F (Morrison J F. Biochim Biophys Acta. 1969, 185: 269-86) and by Szedlaseck S E et al. (Szedlascek, S. E., Ostafe, V., Serban, M., and Vlad, M. O. Biochem. J. 1988, 254:311-312), respectively.
The fluorescent substrate BFC was purchased from Sigma (St Louis, Mo.). Two commercial sources of recombinant enzymes were used in this study: recombinant CYP3A4-b5 enzyme (Baculosomes®) was purchased from Invitrogen (Carlsbad, Calif.) and the recombinant CYP3A4+b5 enzyme (Supersomes®) was purchased from BD Biosciences (Woburn, Mass.).

Structure (SMILES) | IC50 (CYP3A4 [1]) [µM] | IC50 (CYP3A4 [2]) [µM] | Ki [3] [µM] | Ki [4] [µM]
Fc1ccc(Cc2cc(-c3ccncc3)n[nH]2)cc1 [Example 1, 4-[5-(4-fluorobenzyl)-1H-pyrazol-3-yl]pyridine] | < 0.022 | 0.077 | 0.0557 | 0.0064
O=C(Cn1nc(-c2ccncc2)cc1Cc1ccc(F)cc1)N1CCCC(N2CCOCC2)CC1 (stereo not drawn) [Example 4, 1-{[5-(4-fluorobenzyl)-3-pyridin-4-yl-1H-pyrazol-1-yl]acetyl}-4-morpholin-4-ylazepane, maleic acid salt] | 0.057 | 0.023 | 0.0211 | 0.0061
CS(=O)(=O)C1CCN(C(=O)Cn2nc(-c3ccncc3)cc2Cc2ccc(F)cc2)CC1 [Example 6, 4-(5-(4-fluorobenzyl)-1-{2-[4-(methylsulfonyl)piperidin-1-yl]-2-oxoethyl}-1H-pyrazol-3-yl)pyridine] | 0.024 | 0.0218 | 0.0237 | 0.0118
CS(=O)(=O)NC1CCN(C(=O)Cn2nc(-c3ccncc3)cc2Cc2ccc(F)cc2)CC1 [Example 19, N-(1-{2-[5-(4-fluorobenzyl)-3-pyridin-4-yl-1H-pyrazol-1-yl]acetyl}piperidin-4-yl)methanesulfonamide] | 0.033 | 0.0138 | 0.128 | 0.0057
CC(=O)N(C)C1CCN(C(=O)Cn2nc(-c3ccncc3)cc2Cc2ccc(F)cc2)C1 (stereo not drawn) [Example 99, N-(1-{[5-(4-fluorobenzyl)-3-pyridin-4-yl-1H-pyrazol-1-yl]acetyl}pyrrolidin-3-yl)-N-methylacetamide] | 0.064 | 0.032 | 0.248 | 0.0178
CCS(=O)(=O)NC1CCN(C(=O)Cn2nc(-c3ccncc3)cc2Cc2ccc(F)cc2)CC1 [Example 102, N-(1-(2-[5-(4-fluorobenzyl)-3-pyridin-4-yl-1H-pyrazol-1-yl]acetyl}piperidin-4-yl)ethanesulfonamide] | 0.023 | 0.012 | 0.107 | 
O=C(Cn1nc(-c2ccncc2)cc1Cc1ccc(F)cc1)N1CC[C@@H](N2CCOCC2)C1 [Example 103] | 0.068 | 0.025 | 0.106 | 
CC(C)OC(=O)N(C)C1CCN(C(=O)Cn2nc(-c3ccncc3)cc2Cc2ccc(F)cc2)CC1 [Example 112, isopropyl (1-{[5-(4-fluorobenzyl)-3-pyridin-4-yl-1H-pyrazol-1-yl]acetyl}piperidin-4-yl)methylcarbamate] | 0.009 | 0.006 | 0.002 | 
CCOC(=O)N(C)C1CCN(C(=O)Cn2nc(-c3ccncc3)cc2Cc2ccc(F)cc2)CC1 [Example 113] | 0.011 | 0.009 | 0.00676 | 
CCNC(=O)N(C)C1CCN(C(=O)Cn2nc(-c3ccncc3)cc2Cc2ccc(F)cc2)CC1 [Example 115, 3-ethyl-1-(1-{[5-(4-fluorobenzyl)-3-pyridin-4-yl-1H-pyrazol-1-yl]acetyl}piperidin-4-yl)-1-methylurea] | 0.015 | 0.004 | 0.0338 | 
O=C(Cn1nc(-c2ccncc2)cc1Cc1ccc(F)cc1)N1CCC(N2CCOC2=O)CC1 [Example 118, 3-(1-{[5-(4-fluorobenzyl)-3-pyridin-4-yl-1H-pyrazol-1-yl]acetyl}piperidin-4-yl)-1,3-oxazolidin-2-one] | 0.013 | 0.00837 | 0.0442 | 0.0065

Results, then the compound that gave them:

IC50 (CYP3A4 [1]) [µM] | IC50 (CYP3A4 [2]) [µM] | Ki [3] [µM] | Ki [4] [µM] | Structure (SMILES)
0.105 | 0.073 | 0.196 | 0.033 | CNC1CCN(C(=O)Cn2nc(-c3ccncc3)cc2Cc2ccc(F)cc2)CC1 [Example 7, 1-{[5-(4-fluorobenzyl)-3-pyridin-4-yl-1H-pyrazol-1-yl]acetyl}-N-methylpiperidin-4-amine]
0.016 | 0.00707 | 0.0369 | 0.0139 | CC(C)NC(=O)N(C)C1CCN(C(=O)Cn2nc(-c3ccncc3)cc2Cc2ccc(F)cc2)CC1 [Example 16, N-(1-{[5-(4-fluorobenzyl)-3-pyridin-4-yl-1H-pyrazol-1-yl]acetyl}piperidin-4-yl)-N′-isopropyl-N-methylurea]
0.035 | 0.0115 | 0.0667 | 0.0231 | CC(C)NC(=O)NC1CCN(C(=O)Cn2nc(-c3ccncc3)cc2Cc2ccc(F)cc2)CC1 [Example 17, N-(1-{[5-(4-fluorobenzyl)-3-pyridin-4-yl-1H-pyrazol-1-yl]acetyl}piperidin-4-yl)-N′-isopropylurea]
0.168 | 0.132 | 0.729 | 0.389 | CC(C)(CN1CCOCC1)NC(=O)Cn1nc(-c2c[nH]nn2)cc1Cc1ccc(F)cc1 [Example 50, N-(1,1-dimethyl-2-morpholin-4-ylethyl)-2-[5-(4-fluorobenzyl)-3-(1H-1,2,3-triazol-4-yl)-1H-pyrazol-1-yl]acetamide]
0.035 | 0.034 | 0.0599 | 0.0237 | CC(=O)NC(C)(C)CNC(=O)Cn1nc(-c2ccncc2)cc1Cc1ccc(F)cc1 [Example 71, N-[2-(acetylamino)-2-methylpropyl]-2-[5-(4-fluorobenzyl)-3-pyridin-4-yl-1H-pyrazol-1-yl]acetamide]
0.0435 | 0.018 | 0.211 | 0.0339 | CN(C)[C@H]1CCN(C(=O)Cn2nc(-c3ccncc3)cc2Cc2ccc(F)cc2)C1 [Example 73, (3S)-1-{[5-(4-fluorobenzyl)-3-pyridin-4-yl-1H-pyrazol-1-yl]acetyl}-N,N-dimethylpyrrolidin-3-amine]
0.007 | 0.014 | 0.0134 | 0.0039 | O=C(Cn1nc(-c2ccncc2)cc1Cc1ccc(F)cc1)NC1CCS(=O)(=O)C1 (stereo not drawn) [Example 93, N-(1,1-dioxidotetrahydro-3-thienyl)-2-[5-(4-fluorobenzyl)-3-pyridin-4-yl-1H-pyrazol-1-yl]acetamide]
< 0.021 | < 0.012 | 0.0871 | 0.0059 | O=C(Cn1nc(-c2ccncc2)cc1Cc1ccc(F)cc1)N[C@H]1CC[C@@H](O)CC1 [Example 95, 2-[5-(4-fluorobenzyl)-3-pyridin-4-yl-1H-pyrazol-1-yl]-N-(cis-4-hydroxycyclohexyl)-acetamide]
0.0845 | 0.044 | 0.298 | 0.0225 | CC(=O)N[C@@H]1CCN(C(=O)Cn2nc(-c3ccncc3)cc2Cc2ccc(F)cc2)C1 [Example 100, N-[(3R)-1-{2-[5-(4-fluorobenzyl)-3-pyridin-4-yl-1H-pyrazol-1-yl]acetyl}pyrrolidin-3-yl]acetamide]
0.714 | 0.223 | 0.838 |  | CC(C)NC(=O)Cn1nc(-c2c[nH]cn2)cc1Cc1ccc(F)cc1 [Example 111, 2-[5-(4-fluorobenzyl)-3-(1H-imidazol-4-yl)-1H-pyrazol-1-yl]-N-isopropylacetamide]
0.008 | < 0.003 | 0.0141 |  | CC(C)OC(=O)NC1CCN(C(=O)Cn2nc(-c3ccncc3)cc2Cc2ccc(F)cc2)CC1 [Example 116, isopropyl (1-{[5-(4-fluorobenzyl)-3-pyridin-4-yl-1H-pyrazol-1-yl]acetyl}piperidin-4-yl)carbamate]
0.018 | 0.011 | 0.0702 |  | CNC(=O)N(C)C1CCN(C(=O)Cn2nc(-c3ccncc3)cc2Cc2ccc(F)cc2)CC1 [Example 117, 1-(1-{[5-(4-fluorobenzyl)-3-pyridin-4-yl-1H-pyrazol-1-yl]acetyl}piperidin-4-yl)-1,3-dimethylurea]
